Measurements from patent US9409907B2, “Inhibitor compounds” (Cancer Research Technology Limited, priority 2012, dated 2016).

Molecular target: full length MPS1 (Homo sapiens (Human), UniProt P33981)
Experiment: Measurement of inhibition of MPS1 kinase (Caliper EZ reader mobility-shift enzyme assay)
Assay type: biochemical
Conditions: full length MPS1 12.5 nM or 3 nM, H236 peptide 5 μM, ATP 10 μM, 60 min at room temperature
Protocol: Measurement of Inhibition of MPS1 Kinase
The reaction was carried out for 60 min at room temperature and stopped by the addition of buffer (10 μl) containing 20 mM EDTA, 0.05% (v/v) Brij-35, in 0.1M HEPES-buffered saline (Free acid, Sigma, UK). The plate was read on a Caliper EZ reader II (Caliper Life Sciences).
The % inhibition of the compounds is calculated relative to the means of selected control wells.

Sequence of full length MPS1 (P33981 whole entry): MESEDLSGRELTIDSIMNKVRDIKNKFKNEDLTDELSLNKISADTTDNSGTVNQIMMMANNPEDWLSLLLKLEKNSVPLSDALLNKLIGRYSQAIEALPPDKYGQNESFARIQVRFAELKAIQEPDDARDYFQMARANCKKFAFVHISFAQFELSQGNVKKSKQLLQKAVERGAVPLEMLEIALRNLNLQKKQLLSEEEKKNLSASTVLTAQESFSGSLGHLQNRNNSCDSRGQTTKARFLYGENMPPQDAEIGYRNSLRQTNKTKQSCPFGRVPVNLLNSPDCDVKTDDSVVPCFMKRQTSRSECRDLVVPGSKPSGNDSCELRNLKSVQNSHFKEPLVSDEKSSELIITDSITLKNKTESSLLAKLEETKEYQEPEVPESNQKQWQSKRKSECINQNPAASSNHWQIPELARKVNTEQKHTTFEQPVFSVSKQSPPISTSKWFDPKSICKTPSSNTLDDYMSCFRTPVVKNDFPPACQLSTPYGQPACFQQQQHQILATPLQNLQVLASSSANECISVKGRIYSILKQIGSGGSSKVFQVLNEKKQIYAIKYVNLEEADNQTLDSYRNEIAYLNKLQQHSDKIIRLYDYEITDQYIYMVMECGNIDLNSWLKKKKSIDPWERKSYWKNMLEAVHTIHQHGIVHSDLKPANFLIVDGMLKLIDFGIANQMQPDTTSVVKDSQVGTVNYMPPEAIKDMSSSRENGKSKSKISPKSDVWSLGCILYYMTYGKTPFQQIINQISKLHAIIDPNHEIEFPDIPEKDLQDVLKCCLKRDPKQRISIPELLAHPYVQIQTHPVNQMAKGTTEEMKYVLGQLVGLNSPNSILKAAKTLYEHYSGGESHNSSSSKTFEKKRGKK

| Structure (SMILES) | IC50 [nM] |
| --- | --- |
| COCCNc1nccc2cnc(Nc3ccc(-c4cnn(C)c4)cc3OC)nc12 [Example 127, N^2-(2-Methoxy-4-(1-methyl-1H-pyrazol-4-yl)phenyl)-N^8-(2-methoxyethyl)pyrido[3,4-d]pyrimidine-2,8-diamine] | 8 |
| COc1cc(-c2cnn(C)c2)ccc1Nc1ncc2ccnc(NC(CO)CO)c2n1 [Example 130, 2-(2-(2-Methoxy-4-(1-methyl-1H-pyrazol-4-yl)phenylamino)pyrido[3,4-d]pyrimidin-8-ylamino)propane-1,3-diol] | 4 |
| COCC(CO)Nc1nccc2cnc(Nc3ccc(-c4cnn(C)c4)cc3OC)nc12 (centres unmarked) [Example 131, 3-Methoxy-2-(2-(2-methoxy-4-(1-methyl-1H-pyrazol-4-yl)phenylamino)pyrido[3,4-d]pyrimidin-8-ylamino)propan-1-ol] | 4 |
| COc1cc(-c2cnn(C)c2)ccc1Nc1ncc2ccnc(NCC3(CO)COC3)c2n1 [Example 132, (3-((2-(2-Methoxy-4-(1-methyl-1H-pyrazol-4-yl)phenylamino)pyrido[3,4-d]pyrimidin-8-ylamino)methyl)oxetan-3-yl)methanol] | > 1000 |
| COc1cc(-c2cnn(C)c2)ccc1Nc1ncc2ccnc(N3CCC(CO)C3)c2n1 (centres unmarked) [Example 133, (1-(2-(2-Methoxy-4-(1-methyl-1H-pyrazol-4-yl)phenylamino)pyrido[3,4-d]pyrimidin-8-yl)pyrrolidin-3-yl)methanol] | 3 |
| COc1cc(-c2cnn(C)c2)ccc1Nc1ncc2ccnc(N3CCCC(CO)C3)c2n1 (centres unmarked) [Example 134, (1-(2-(2-Methoxy-4-(1-methyl-1H-pyrazol-4-yl)phenylamino)pyrido[3,4-d]pyrimidin-8-yl)piperidin-3-yl)methanol] | 4 |
| COc1cc(-c2cnn(C)c2)ccc1Nc1ncc2ccnc(N3CCOC(CO)C3)c2n1 (centres unmarked) [Example 135, (4-(2-(2-Methoxy-4-(1-methyl-1H-pyrazol-4-yl)phenylamino)pyrido[3,4-d]pyrimidin-8-yl)morpholin-2-yl)methanol] | 4 |
| COc1cc(-c2cnn(C)c2)ccc1Nc1ncc2cc(C3CC3)nc(N3CCC4(COC4)C3)c2n1 [Example 136, 6-Cyclopropyl-N-(2-methoxy-4-(1-methyl-1H-pyrazol-4-yl)phenyl)-8-(2-oxa-6-azaspiro[3.4]octan-6-yl)pyrido[3,4-d]pyrimidin-2-amine] | 93 |
| COc1cc(-c2cnn(C)c2)ccc1Nc1ncc2ccnc(N3CCC(OC)CC3)c2n1 [Example 138, N-(2-Methoxy-4-(1-methyl-1H-pyrazol-4-yl)phenyl)-8-(4-methoxypiperidin-1-yl)pyrido[3,4-d]pyrimidin-2-amine] | 8 |
| COc1cc(-c2cnn(C)c2)ccc1Nc1ncc2ccnc(N3CCN(S(C)(=O)=O)CC3)c2n1 [Example 139, N-(2-Methoxy-4-(1-methyl-1H-pyrazol-4-yl)phenyl)-8-(4-(methylsulfonyl)piperazin-1-yl)pyrido[3,4-d]pyrimidin-2-amine] | 6 |
| COc1cc(-c2cnn(C)c2)ccc1Nc1ncc2ccnc(N3CCC(C#N)CC3)c2n1 [Example 140, 1-(2-(2-Methoxy-4-(1-methyl-1H-pyrazol-4-yl)phenylamino)pyrido[3,4-d]pyrimidin-8yl)piperidine-4-carbonitrile] | 4 |
| COc1cc(-c2cnn(C)c2)ccc1Nc1ncc2ccnc(NC[C@]3(C)CCOC3)c2n1 [Example 141, (S)—N^2-(2-methoxy-4-(1-methyl-1H-pyrazol-4-yl)phenyl)-N^3-((3-methyltetrahydrofuran-3-yl)methyl)pyrido[3,4-d]pyrimidine-2,8-diamine] | 3 |
| COc1cc(-c2cnn(C)c2)ccc1Nc1ncc2ccnc(NC[C@@]3(C)CCOC3)c2n1 [Example 142, (R)—N^2-(2-methoxy-4-(1-methyl-1H-pyrazol-4-yl)phenyl)-N^3-((3-methyltetrahydrofuran-3-yl)methyl)pyrido[3,4-d]pyrimidine-2,8-diamine] | 3 |
| COc1cc(-c2cnn(C)c2)ccc1Nc1ncc2ccnc(C3=CCOCC3)c2n1 [Example 144, 8-(3,6-Dihydro-2H-pyran-4-yl)-N-(2-methoxy-4-(1-methyl-1H-pyrazol-4-yl)phenyl)pyrido[3,4-d]pyrimidin-2-amine] | 5 |
| COc1cc(-c2cnn(C)c2C)ccc1Nc1ncc2ccnc(N3CCC4(COC4)C3)c2n1 [Example 145, N-(4-(1,5-dimethyl-1H-pyrazol-4-yl)-2-methoxyphenyl)-8-(2-oxa-6-azaspiro[3.4]octan-6-yl)pyrido[3,4-d]pyrimidin-2-amine] | 2 |
| COc1cc(-c2cnn(C)c2C)ccc1Nc1ncc2ccnc(NCC3(C)COC3)c2n1 [Example 146, N^2-(4-(1,5-dimethyl-1H-pyrazol-4-yl)-2-methoxyphenyl)-N^8-((3-methyloxetan-3-yl)methyl)pyrido[3,4-d]pyrimidine-2,8-diamine] | 4 |

| Structure (SMILES) | IC50 [nM] |
| --- | --- |
| COc1cc(-c2cnn(C)c2C)ccc1Nc1ncc2ccnc(NCC(C)(C)OC)c2n1 [Example 147, N^2-(4-(1,5-dimethyl-1H-pyrazol-4-yl)-2-methoxyphenyl)-N^8-(2-methoxy-2-methylpropyl)pyrido[3,4-d]pyrimidine-2,8-diamine] | 2 |
| COc1cc(-c2cnn(C)c2C)ccc1Nc1ncc2ccnc(NCC3(C)CCOC3)c2n1 (centres unmarked) [Example 148, N^2-(4-(1,5-dimethyl-1H-pyrazol-4-yl)-2-methoxyphenyl)-N^8-((3-methyltetrahydrofuran-3-yl)methyl)pyrido[3,4-d]pyrimidine-2,8-diamine] | 3 |
| COc1cc(-c2nncn2C)ccc1Nc1ncc2c(C)cnc(NCC(C)(C)OC)c2n1 [Example 150, N^8-(2-methoxy-2-methylpropyl)-N^2-(2-methoxy-4-(4-methyl-4H-1,2,4-triazol-3-yl)phenyl)-5-methylpyrido[3,4-d]pyrimidine-2,8-diamine] | 3 |
| COc1cc(-c2nncn2C)ccc1Nc1ncc2c(C)cnc(NCC(C)(C)C)c2n1 [Example 151, N^2-(2-methoxy-4-(4-methyl-4H-1,2,4-triazol-3-yl)phenyl)-5-methyl-N^8-neopentylpyrido[3,4-d]pyrimidine-2,8-diamine] | 2 |
| CCn1cc(-c2ccc(Nc3ncc4ccnc(NCC(C)(C)OC)c4n3)c(OC)c2)cn1 [Example 152, N^2-(4-(1-ethyl-1H-pyrazol-4-yl)-2-methoxyphenyl)-N^8-(2-methoxy-2-methylpropyl)pyrido[3,4-d]pyrimidine-2,8-diamine] | 7 |
| COc1cc(C(=O)N2CC(OC)C2)ccc1Nc1ncc2ccnc(NCC(C)(C)C)c2n1 [Example 153, (3-methoxy-4-(8-(neopentylamino)pyrido[3,4-d]pyrimidin-2-ylamino)phenyl)(3-methoxyazetidin-1-yl)methanone] | 4 |
| COc1cc(C2CCOCC2)ccc1Nc1ncc2ccnc(NCC3(C)CCOC3)c2n1 (centres unmarked) [Example 154, N^2-(2-methoxy-4-(tetrahydro-2H-pyran-4-yl)phenyl)-N^8-((3-methyltetrahydrofuran-3-yl)methyl)pyrido[3,4-d]pyrimidine-2,8-diamine] | 7 |
| COc1cc(-c2nncn2C)ccc1Nc1ncc2c(C)cnc(NCC3(C)COC3)c2n1 [Example 155, N^2-(2-methoxy-4-(4-methyl-4H-1,2,4-triazol-3-yl)phenyl)-5-methyl-N^8-((3-methyloxetan-3-yl)methyl)pyrido[3,4-d]pyrimidine-2,8-diamine] | 4 |
| COc1cc(-c2nncn2C)ccc1Nc1ncc2c(C)cnc(NCC3(C)CCOC3)c2n1 (centres unmarked) [Example 156, N^2-(2-methoxy-4-(4-methyl-4H-1,2,4-triazol-3-yl)phenyl)-5-methyl-N^8-((3-methyltetrahydrofuran-3-yl)methyl)pyrido[3,4-d]pyrimidine-2,8-diamine] | 5 |
| COc1cc(-c2nncn2C)ccc1Nc1ncc2c(C)cnc(N3CC4(CCOC4)C3)c2n1 [Example 157, N-(2-methoxy-4-(4-methyl-4H-1,2,4-triazol-3-yl)phenyl)-5-methyl-8-(6-oxa-2-azaspiro[3.4]octan-2-yl)pyrido[3,4-d]pyrimidin-2-amine] | 6 |
| COc1cc(-c2cnc(C)n2C)ccc1Nc1ncc2cc(C)nc(NCC(C)(C)OC)c2n1 [Example 158] | 3 |
| CCOc1cc(-c2cnn(C)c2)ccc1Nc1ncc2ccnc(N3CCC4(COC4)C3)c2n1 [Example 159, N-(2-ethoxy-4-(1-methyl-1H-pyrazol-4-yl)phenyl)-8-(2-oxa-6-azaspiro[3.4]octan-6-yl)pyrdio[3,4-d]pyrimidin-2-amine] | 5 |
| CCOc1cc(-c2nncn2C)ccc1Nc1ncc2cc(C)nc(N3CC4(CCOC4)C3)c2n1 [Example 160, N-(2-ethoxy-4-(4-methyl-4H-1,2,4-triazol-3-yl)phenyl)-6-methyl-8-(6-oxa-2-azaspiro[3.4]octan-2-yl)pyrido[3,4-d]pyrimidin-2-amine] | 3 |
| COc1nc(-c2cnc(C)n2C)ccc1Nc1ncc2ccnc(NCC(C)(C)OC)c2n1 [Example 162, N^2-(6-(1,2-Dimethyl-1H-imidazol-5-yl)-2-methoxypyridin-3-yl)-N^8-(2-methoxy-2-methylpropyl)pyrido[3,4-d]pyrimidine-2,8-diamine] | 3 |
| COc1cc(-c2nnnn2C)ccc1Nc1ncc2ccnc(NCC(C)(C)OC)c2n1 [Example 163, N^8-(2-Methoxy-2-methylpropyl)-N^2-(2-methoxy-4-(1-methyl-1H-tetrazol-5-yl)phenyl)pyrido[3,4-d]pyrimidine-2,8-diamine] | 2 |
| COc1nc(-c2cn(C)nc2C)ccc1Nc1ncc2ccnc(NCC(C)(C)OC)c2n1 [Example 164, N^2-(6-(1,3-Dimethyl-1H-pyrazol-4-yl)-2-methoxypyridin-3-yl)-N^8-(2-methoxy-2-methylpropyl)pyrido[3,4-d]pyrimidine-2,8-diamine] | 3 |
